# Test results taken from ChEMBL document CHEMBL4130619, “Structure-Based Virtual Screening for the Discovery of Novel Inhibitors of New Delhi Metallo-β-lactamase-1” (ACS Med Chem Lett, 2018).
# pKi: −log10 of the molar value.
# Assays:
# [1] = Competitive inhibition of bacterial NDM1 expressed in Escherichia coli JM109 (DE3) pre-incubated for 10 mins before nitrocefin substrate addition by spectrophotometry; design: species or system Bacteria
# [2] = tested on: Bacteria; assay: Competitive inhibition of bacterial NDM1 expressed in Escherichia coli JM109 (DE3) at 200 uM pre-incubated for 10 mins before nitrocefin substrate addition by spectrophotometry
# [3] = biological target: Beta-lactamase NDM-1 (Escherichia coli) (UniProt E5KIY2); assay: Inhibition of NDM1 in Escherichia coli clinical isolates assessed as potentiation of meropenem-induced antibacterial activity by measuring reduction in meropenem MIC incubated at 37 degC for 18 hrs by spectrophotometry based checkerboard microdilution assay
# [4] = tested on: Bacteria; assay: (§1) Inhibition of bacterial NDM1 expressed in Escherichia coli BL21 (DE3) expressing pET-24a-blaNDM-1 assessed as potentiation of meropenem-induced antibacterial activity by measuring reduction in meropenem MIC incubated at 37 degC for 18 hrs by spectrophotometry based checkerboard microdilution assay
# [5] = tested on: Bacteria; assay: Inhibition of bacterial NDM1 expressed in Escherichia coli BL21 (DE3) expressing pET-24a-blaNDM-1 assessed as potentiation of cefotaxime-induced antibacterial activity by measuring reduction in cefotaxime MIC incubated at 37 degC for 18 hrs by spectrophotometry based checkerboard microdilution assay
# [6] = tested on: Bacteria; assay: as §1, with “ampicillin-induced” for “meropenem-induced”, “combination” for “reduction in meropenem”, “MIC at >256 ug/ml” for “MIC”
# [7] = tested on: Bacteria; assay: as §1, with “ampicillin-induced” for “meropenem-induced”, “combination” for “reduction in meropenem”, “MIC at 256 ug/ml” for “MIC”
# [8] = tested on: Bacteria; assay: (§2) Inhibition of bacterial NDM1 expressed in Escherichia coli BL21 (DE3) expressing pET-24a-blaNDM-1 assessed as potentiation of meropenem-induced antibacterial activity by measuring combination MIC at 16 ug/ml incubated at 37 degC for 18 hrs by spectrophotometry based checkerboard microdilution assay
# [9] = tested on: Bacteria; assay: as §2, with “0.25” for “16”
# [10] = tested on: Bacteria; assay: as §2, with “cefazolin-induced” for “meropenem-induced”, “>256” for “16”
# [11] = tested on: Bacteria; assay: (§3) Inhibition of bacterial NDM1 expressed in Escherichia coli BL21 (DE3) expressing pET-24a-blaNDM-1 assessed as potentiation of cefazolin-induced antibacterial activity by measuring combination MIC at 256 ug/ml incubated at 37 degC for 18 hrs by spectrophotometry based checkerboard microdilution assay
# [12] = tested on: Bacteria; assay: (§4) Inhibition of bacterial NDM1 expressed in Escherichia coli BL21 (DE3) expressing pET-24a-blaNDM-1 assessed as potentiation of cefotaxime-induced antibacterial activity by measuring combination MIC at 4 ug/ml incubated at 37 degC for 18 hrs by spectrophotometry based checkerboard microdilution assay
# [13] = tested on: Bacteria; assay: as §4, with “at 0.25” for “at 4”
# [14] = biological target: Beta-lactamase NDM-1 (Escherichia coli) (UniProt E5KIY2); assay: Inhibition of NDM1 in Escherichia coli clinical isolates assessed as potentiation of meropenem -induced antibacterial activity by measuring combination MIC at 32 ug/ml incubated at 37 degC for 18 hrs by spectrophotometry based checkerboard microdilution assay
# [15] = tested on: Bacteria; assay: as §2, with “ampicillin-induced” for “meropenem-induced”, “fractional inhibitory concentration index” for “combination MIC”, “>256” for “16”
# [16] = tested on: Bacteria; assay: as §3, with “ampicillin-induced” for “cefazolin-induced”, “fractional inhibitory concentration index” for “combination MIC”
# [17] = tested on: Bacteria; assay: as §2, with “fractional inhibitory concentration index” for “combination MIC”
# [18] = tested on: Bacteria; assay: as §2, with “fractional inhibitory concentration index” for “combination MIC”, “0.25” for “16”
# [19] = tested on: Bacteria; assay: as §3, with “fractional inhibitory concentration index” for “combination MIC”, “>256” for “256”
# [20] = tested on: Bacteria; assay: as §3, with “fractional inhibitory concentration index” for “combination MIC”
# [21] = tested on: Bacteria; assay: as §4, with “fractional inhibitory concentration index” for “combination MIC”
# [22] = tested on: Bacteria; assay: as §4, with “measuring fractional inhibitory concentration index” for “measuring combination MIC”, “at 0.25” for “at 4”
# [23] = biological target: Beta-lactamase NDM-1 (Escherichia coli) (UniProt E5KIY2); assay: Inhibition of NDM1 in Escherichia coli clinical isolates assessed as potentiation of ampicillin-induced antibacterial activity by measuring combination MIC at 128 ug/ml incubated at 37 degC for 18 hrs by spectrophotometry based checkerboard microdilution assay
# [24] = biological target: Beta-lactamase NDM-1 (Escherichia coli) (UniProt E5KIY2); assay: Inhibition of NDM1 in Escherichia coli clinical isolates assessed as potentiation of meropenem -induced antibacterial activity by measuring combination MIC at 2 ug/ml incubated at 37 degC for 18 hrs by spectrophotometry based checkerboard microdilution assay
# [25] = biological target: Beta-lactamase NDM-1 (Escherichia coli) (UniProt E5KIY2); assay: Inhibition of NDM1 in Escherichia coli clinical isolates assessed as potentiation of cefazolin-induced antibacterial activity by measuring combination MIC at >256 ug/ml incubated at 37 degC for 18 hrs by spectrophotometry based checkerboard microdilution assay
# [26] = biological target: Beta-lactamase NDM-1 (Escherichia coli) (UniProt E5KIY2); assay: Inhibition of NDM1 in Escherichia coli clinical isolates assessed as potentiation of cefotaxime-induced antibacterial activity by measuring combination MIC at >256 ug/ml incubated at 37 degC for 18 hrs by spectrophotometry based checkerboard microdilution assay
# [27] = biological target: Beta-lactamase NDM-1 (Escherichia coli) (UniProt E5KIY2); assay: Inhibition of NDM1 in Escherichia coli clinical isolates assessed as potentiation of ampicillin-induced antibacterial activity by measuring fractional inhibitory concentration index at 128 ug/ml incubated at 37 degC for 18 hrs by spectrophotometry based checkerboard microdilution assay
# [28] = biological target: Beta-lactamase NDM-1 (Escherichia coli) (UniProt E5KIY2); assay: Inhibition of NDM1 in Escherichia coli clinical isolates assessed as potentiation of meropenem -induced antibacterial activity by measuring fractional inhibitory concentration index at 32 ug/ml incubated at 37 degC for 18 hrs by spectrophotometry based checkerboard microdilution assay
# [29] = biological target: Beta-lactamase NDM-1 (Escherichia coli) (UniProt E5KIY2); assay: Inhibition of NDM1 in Escherichia coli clinical isolates assessed as potentiation of meropenem -induced antibacterial activity by measuring fractional inhibitory concentration index at 2 ug/ml incubated at 37 degC for 18 hrs by spectrophotometry based checkerboard microdilution assay
# [30] = biological target: Beta-lactamase NDM-1 (Escherichia coli) (UniProt E5KIY2); assay: Inhibition of NDM1 in Escherichia coli clinical isolates assessed as potentiation of cefazolin-induced antibacterial activity by measuring fractional inhibitory concentration index at >256 ug/ml incubated at 37 degC for 18 hrs by spectrophotometry based checkerboard microdilution assay
# [31] = biological target: Beta-lactamase NDM-1 (Escherichia coli) (UniProt E5KIY2); assay: Inhibition of NDM1 in Escherichia coli clinical isolates assessed as potentiation of cefotaxime-induced antibacterial activity by measuring fractional inhibitory concentration index at >256 ug/ml incubated at 37 degC for 18 hrs by spectrophotometry based checkerboard microdilution assay
# [32] = tested on: Escherichia coli; assay: Antibacterial activity in Escherichia coli clinical isolates endogenously expressing NDM1 incubated at 37 degC for 18 hrs by spectrophotometry; format: functional
# [33] = tested on: Escherichia coli; assay: Antibacterial activity in Escherichia coli BL21 (DE3) expressing pET-24a-blaNDM-1 incubated at 37 degC for 18 hrs by spectrophotometry; format: functional
# [34] = tested on: Bacteria; assay: as §2, with “ampicillin-induced” for “meropenem-induced”, “0.25” for “16”
# [35] = tested on: Bacteria; assay: (§5) Inhibition of bacterial NDM1 expressed in Escherichia coli BL21 (DE3) expressing pET-24a-blaNDM-1 assessed as potentiation of meropenem-induced antibacterial activity by measuring combination MIC at 64 ug/ml incubated at 37 degC for 18 hrs by spectrophotometry based checkerboard microdilution assay
# [36] = tested on: Bacteria; assay: (§6) Inhibition of bacterial NDM1 expressed in Escherichia coli BL21 (DE3) expressing pET-24a-blaNDM-1 assessed as potentiation of meropenem-induced antibacterial activity by measuring combination MIC at 0.5 ug/ml incubated at 37 degC for 18 hrs by spectrophotometry based checkerboard microdilution assay
# [37] = tested on: Bacteria; assay: as §3, with “0.25” for “256”
# [38] = tested on: Bacteria; assay: as §2, with “ampicillin-induced” for “meropenem-induced”, “fractional inhibitory concentration index” for “combination MIC”, “0.25” for “16”
# [39] = tested on: Bacteria; assay: as §5, with “fractional inhibitory concentration index” for “combination MIC”
# [40] = tested on: Bacteria; assay: as §6, with “fractional inhibitory concentration index” for “combination MIC”
# [41] = tested on: Bacteria; assay: as §3, with “fractional inhibitory concentration index” for “combination MIC”, “0.25” for “256”
# [42] = biological target: Beta-lactamase NDM-1 (Escherichia coli) (UniProt E5KIY2); assay: Inhibition of NDM1 in Escherichia coli clinical isolates assessed as potentiation of meropenem -induced antibacterial activity by measuring combination MIC at 64 ug/ml incubated at 37 degC for 18 hrs by spectrophotometry based checkerboard microdilution assay
# [43] = biological target: Beta-lactamase NDM-1 (Escherichia coli) (UniProt E5KIY2); assay: Inhibition of NDM1 in Escherichia coli clinical isolates assessed as potentiation of meropenem -induced antibacterial activity by measuring fractional inhibitory concentration index at 64 ug/ml incubated at 37 degC for 18 hrs by spectrophotometry based checkerboard microdilution assay
compound,measurement,setting,value
Nc1ncnc2c1nc(S(=O)(=O)O)n2Cc1ccccc1,pKi,[1],4.19
same,inhibition,[2],> 50%
C=CCn1c(S)nnc1-c1ccccc1O,fold change (FC),[3],8
same,pKi,[1],6.14
same,inhibition,[2],> 50%
same,fold change (FC),[4],16
same,fold change (FC),[5],4
same,MIC,[6],1020 µg/mL
same,MIC,[7],0.0625 µg/mL
same,MIC,[8],0.25 µg/mL
same,MIC,[9],0.5 µg/mL
same,MIC,[10],32 µg/mL
same,MIC,[11],1 µg/mL
same,MIC,[12],2 µg/mL
same,MIC,[13],4 µg/mL
same,MIC,[14],32 µg/mL
same,fractional inhibitory concentration index (FICI),[15],> 1
same,fractional inhibitory concentration index (FICI),[16],< 0.563
same,fractional inhibitory concentration index (FICI),[17],< 0.281
same,fractional inhibitory concentration index (FICI),[18],< 0.501
same,fractional inhibitory concentration index (FICI),[19],> 1
same,fractional inhibitory concentration index (FICI),[20],< 0.625
same,fractional inhibitory concentration index (FICI),[21],< 0.258
same,fractional inhibitory concentration index (FICI),[22],< 0.505
same,MIC,[23],16 µg/mL
same,MIC,[24],64 µg/mL
same,MIC,[25],2050 µg/mL
same,MIC,[26],1020 µg/mL
same,fractional inhibitory concentration index (FICI),[27],< 0.375
same,fractional inhibitory concentration index (FICI),[28],< 0.313
same,fractional inhibitory concentration index (FICI),[29],< 0.504
same,fractional inhibitory concentration index (FICI),[30],> 1
same,fractional inhibitory concentration index (FICI),[31],> 1
CO/N=C(\C(=O)N[C@@H]1C(=O)N2C(C(=O)O)=C(COC(C)=O)CS[C@H]12)c1csc(N)n1 [CEFOTAXIME],MIC,[32],1020 µg/mL
same,MIC,[33],8 µg/mL
O=C(O)CN1C(=O)S/C(=C\c2ccccc2Br)C1=O,pKi,[1],4.12
same,inhibition,[2],> 50%
Cc1nnc(SCC2=C(C(=O)O)N3C(=O)[C@@H](NC(=O)Cn4cnnn4)[C@H]3SC2)s1 [CEFAZOLIN],MIC,[33],≥ 32 µg/mL
Cn1c(SCC(=O)O)nnc1-c1ccc(N)cc1,pKi,[1],4.07
same,inhibition,[2],> 50%
C[C@@H](O)[C@H]1C(=O)N2C(C(=O)O)=C(S[C@@H]3CN[C@H](C(=O)N(C)C)C3)[C@H](C)[C@H]12 [MEROPENEM],MIC,[32],128 µg/mL
same,MIC,[33],1 µg/mL
Sc1nncn1NCc1cccc(Br)c1,fold change (FC),[3],4
same,pKi,[1],6.00
same,inhibition,[2],> 50%
same,fold change (FC),[4],4
same,MIC,[13],4 µg/mL
same,MIC,[34],1020 µg/mL
same,MIC,[35],0.25 µg/mL
same,MIC,[36],0.5 µg/mL
same,MIC,[37],32 µg/mL
same,MIC,[14],32 µg/mL
same,fractional inhibitory concentration index (FICI),[22],< 0.501
same,fractional inhibitory concentration index (FICI),[38],< 0.501
same,fractional inhibitory concentration index (FICI),[39],< 0.375
same,fractional inhibitory concentration index (FICI),[40],< 0.501
same,fractional inhibitory concentration index (FICI),[41],< 0.501
same,MIC,[25],2050 µg/mL
same,MIC,[26],1020 µg/mL
same,MIC,[42],64 µg/mL
same,fractional inhibitory concentration index (FICI),[28],< 0.313
same,fractional inhibitory concentration index (FICI),[30],> 1
same,fractional inhibitory concentration index (FICI),[31],> 1
same,fractional inhibitory concentration index (FICI),[43],< 0.501
O=C(CS(=O)(=O)c1ccccc1)NC1CCCCC1,pKi,[1],4.28
same,inhibition,[2],> 50%
Cc1ccc(-n2nnnc2CS(=O)(=O)c2ccccc2)cc1,pKi,[1],4.15
same,inhibition,[2],> 50%
CC1(C)S[C@@H]2[C@H](NC(=O)[C@H](N)c3ccccc3)C(=O)N2[C@H]1C(=O)O [AMPICILLIN],MIC,[32],> 32800 µg/mL
same,MIC,[33],1020 to 2050 µg/mL
O=C(O)CC(Sc1c[nH]c2ccccc12)C(=O)O (centres undefined),pKi,[1],4.17
same,inhibition,[2],> 50%
Nc1nnnn1NCc1cccc(Cl)c1Cl,pKi,[1],4.17
same,inhibition,[2],> 50%
